Consider 48 compounds from patent US10689367B2, “Triazole pyridyl compounds as agonists of the APJ receptor” (AMGEN INC., priority 2016, dated 2020).

The target of the experiment is human APJ receptor (Homo sapiens (Human), UniProt P35414). As to the kind of experiment: [35S]GTPγS binding assay on membranes from CHO cells stably expressing human APJ receptor. Type of experiment: biochemical. Conditions: membranes of CHO cells stably expressing human APJ receptor, read-out: Activity hAPJ SPA EC50 IP. A digest of the protocol: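 [35S]GTPγS binding measured on membranes from CHO cells stably expressing FLAG-tagged human APJ, with GDP, MgCl2 and NaCl levels optimized beforehand. Incubation 90 min at RT, imager read-out; EC50 from non-linear regression, averaged over several independent experiments.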
Chain of human APJ receptor (P35414 whole entry): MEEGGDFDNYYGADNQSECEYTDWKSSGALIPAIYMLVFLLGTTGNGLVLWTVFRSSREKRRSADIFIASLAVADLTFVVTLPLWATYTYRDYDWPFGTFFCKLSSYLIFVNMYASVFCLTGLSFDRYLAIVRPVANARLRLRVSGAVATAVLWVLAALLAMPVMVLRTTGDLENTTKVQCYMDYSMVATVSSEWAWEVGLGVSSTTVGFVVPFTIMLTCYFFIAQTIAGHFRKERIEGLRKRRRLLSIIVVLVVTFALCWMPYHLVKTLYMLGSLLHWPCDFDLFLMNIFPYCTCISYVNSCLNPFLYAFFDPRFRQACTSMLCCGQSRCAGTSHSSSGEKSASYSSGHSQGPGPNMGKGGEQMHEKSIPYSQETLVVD
On the technique in general: GTPγS is a poorly hydrolysed GTP analogue; its binding reports G protein activation.
What is called EC50 is the concentration that produces a half-maximal response. In the case of `COCC(COC)n1c(NS(=O)(=O)[C@@H](C)[C@H](OC)c2ncc(Cl)cn2)nnc1-c1cncc(C)c1` [Example 15.0, (1R,2S)-1-(5-chloro-2-pyrimidinyl)-N-(4-(1,3-dimethoxy-2-propanyl)-5-(5-methyl-3-pyridinyl)-4H-1,2,4-triazol-3-yl)-1-methoxy-2-propanesulfonamiide], the EC50 was determined as 30 nM. As for `COCC(COC)n1c(NS(=O)(=O)[C@@H](C)[C@H](OC)c2ncc(Cl)cn2)nnc1-c1cccnc1` [Example 16.0], the concentration for a half-maximal effect (EC50) was 44 nM. With `COCC(COC)n1c(NS(=O)(=O)[C@@H](C)[C@H](C)c2cnc(C)cn2)nnc1-c1cccnc1` [Example 17.0, (2S,3R)-N-(4-(1,3-dimethoxy-2-propanyl)-5-(3-pyridinyl)-4H-1,2,4-triazol-3-yl)-3-(5-methyl-2-pyrazinyl)-2-butanesulfonamide] the figure was 380 nM; with `COCC(COC)n1c(NS(=O)(=O)[C@@H](C)[C@H](C)c2ncc(Cl)cn2)nnc1-c1cccnc1` [Example 19.0, (2S,3R)-3-(5-chloro-2-pyrimidinyl)-N-(4-(1,3dimethoxy-2-propanyl)-5-(3-pyridinyl)-4H-1,2,4-triazol-3-yl)-2-butanesulfonamide], 26 nM.

In the case of `COCCn1c(NS(=O)(=O)[C@@H](C)[C@H](C)c2ncc(OC)cn2)nnc1-c1cccc(OC)n1` [Example 20.0, (2S,3R)-N-(4-(2-methoxyethyl)-5-(6-methoxy-2-pyridinyl)-4H-1,2,4-triazol-3-yl)-3-(5-methoxy-2-pyrimidinyl)-2-butanesulfonamide], the EC50 amounted to 110 nM. In the case of `COCCn1c(NS(=O)(=O)[C@@H](C)[C@H](C)c2ncc(OC)cn2)nnc1-c1ccccn1` [Example 21.0, (2S,3R)-N-(4-(2-methoxyethyl)-5-(2-pyridinyl)-4H-1,2,4-triazol-3-yl)-3-(5-methoxy-2-pyrimidinyl)-2-butanesulfonamide], the 50% effective concentration (EC50) was 430 nM. Turning to `CCOCCn1c(NS(=O)(=O)[C@@H](C)[C@H](OC)c2ncc(Cl)cn2)nnc1-c1cccc(OC)n1` [Example 22.0, (1R,2S)-1-(5-chloro-2-pyrimidinyl)-N-(4-(2-ethoxyethyl)-5-(6-methoxy-2-pyridinyl)-4H-1,2,4-triazol-3-yl)-1-methoxy-2-propanesulfonamide], the 50% effective concentration (EC50) was found to be 3.2 nM. With `COCCn1c(NS(=O)(=O)[C@@H](C)[C@@H](OC(C)C)c2ncc(Cl)cn2)nnc1-c1ccccn1` [Example 23.0, (1S,2S)-1-(5-chloro-2-pyrimidinyl)-N-(4-(2-methoxyethyl)-5-(2-pyridinyl)-4H-1,2,4-triazol-3-yl)-1-(2-propanyloxy)-2-propanesulfonamide], the EC50 was 15 nM. Regarding `COc1cccc(-c2nnc(NS(=O)(=O)[C@@H](C)[C@H](OC)c3ncc(Cl)cn3)n2C(C2CC2)C2CC2)n1` [Example 25.0, (1R,2S)-1-(5-chloro-2-pyrimidinyl)-N-(4-(dicyclopropylmethyl)-5-(6-methoxy-2-pyridinyl)-4H-1,2,4-triazol-3-yl)-1-methoxy-2-propanesulfonamide], the 50% effective concentration (EC50) was found to be 0.08 nM.

Regarding `COc1cccc(-c2nnc(NS(=O)(=O)[C@@H](C)[C@H](OC)c3ncc(Cl)cn3)n2CCSC)n1` [Example 26.0, (1R,2S)-1-(5-chloropyrimidin-2-yl)-1-methoxy-N-(5-(6-methoxypyridin-2-yl)-4-(2-(methylthio)ethyl)-4H-1,2,4-triazol-3-yl)propane-2-sulfonamide], the EC50 worked out at 12 nM. With `COCCOc1cccc(-c2nnc(NS(=O)(=O)[C@@H](C)[C@H](OC)c3ncc(Cl)cn3)n2C(COC)COC)n1` [Example 42.0] the figure was 17 nM. As to `COc1cccc(-c2nnc(NS(=O)(=O)[C@@H](C)[C@H](OC)c3ncc(Cl)cn3)n2CCOC(F)F)n1` [Example 43.0], the EC50 came out at 3.7 nM.

`COc1cccc(-c2nnc(NS(=O)(=O)[C@@H](C)[C@H](OC)c3ncc(Cl)cn3)n2CCC#N)n1` [Example 44.0]: the EC50 turned out to be 4.9 nM.

As to `COc1cccc(-c2nnc(NS(=O)(=O)[C@@H](C)[C@H](OC)c3ncc(Cl)cn3)n2CCC(N)=O)n1` [Example 45.0], the EC50 was determined as 60 nM. For the compound `CO[C@H](c1ncc(Cl)cn1)[C@H](C)S(=O)(=O)Nc1nnc(-c2ccccn2)n1C(C1CC1)C1CC1` [Example 46.0], the EC50 is 0.33 nM. In the case of `CCC(CC)n1c(NS(=O)(=O)[C@@H](C)[C@H](OC)c2ncc(Cl)cn2)nnc1-c1ccccn1` [Example 47.0], the EC50 is 5.3 nM. Regarding `COC[C@H](C)n1c(NS(=O)(=O)[C@@H](C)[C@H](OC)c2ncc(Cl)cn2)nnc1-c1cccc(OC)n1` [Example 48.0], the concentration for a half-maximal effect (EC50) turned out to be 1.3 nM. With `COC[C@@H](C)n1c(NS(=O)(=O)[C@@H](C)[C@H](OC)c2ncc(Cl)cn2)nnc1-c1cccc(OC)n1` [Example 49.0], the concentration for a half-maximal effect (EC50) is 0.88 nM.

As to `COCC1(n2c(NS(=O)(=O)[C@@H](C)[C@H](OC)c3ncc(Cl)cn3)nnc2-c2cccc(OC)n2)CCC1` [Example 50.0], the EC50 stood at 0.46 nM. Turning to `COCC1(n2c(NS(=O)(=O)[C@@H](C)[C@H](OC)c3ncc(Cl)cn3)nnc2-c2ccccn2)CCC1` [Example 51.0], the EC50 was 1.8 nM.

On to `COc1cccc(-c2nnc(NS(=O)(=O)[C@@H](C)[C@H](OC)c3ncc(Cl)cn3)n2CCS(C)(=O)=O)n1` [Example 57.0, (1R,2S)-1-(5-Chloro-2-pyrimidinyl)-1-methoxy-N-(5-(6-methoxy-2-pyridinyl)-4-(2-(methylsulfonyl)ethyl)-4H-1,2,4-triazol-3-yl)-2-propanesulfonamide], for which the EC50 came to 211 nM. For the compound `Cc1cnc([C@H](OC(C)C)[C@H](C)S(=O)(=O)Nc2nnc(-c3cncc(C)c3)n2C2(C)CC2)nc1` [Example 58.0], the concentration for a half-maximal effect (EC50) stood at 42 nM. Take `CO[C@H](c1ncc(Cl)cn1)[C@H](C)S(=O)(=O)Nc1nnc(-c2cccc(C)n2)n1C1(C)CCC1` [Example 59.0]: the EC50 is 28 nM. On to `COCC1(n2c(NS(=O)(=O)[C@@H](C)[C@H](OC)c3ncc(Cl)cn3)nnc2-c2cccnc2)CC1` [Example 60.0], for which the EC50 worked out at 1.2 nM. As for `COCC1(n2c(NS(=O)(=O)[C@@H](C)[C@H](OC)c3ncc(Cl)cn3)nnc2-c2ccccn2)CC1` [Example 61.0], the EC50 came to 0.89 nM. For the compound `COCC1(n2c(NS(=O)(=O)[C@@H](C)[C@@H](OC(C)C)c3ncc(C)cn3)nnc2-c2cccnc2)CC1` [Example 62.0], the EC50 came to 27 nM. As to `COCC1(n2c(NS(=O)(=O)[C@@H](C)[C@@H](OC(C)C)c3ncc(C)cn3)nnc2-c2cncc(C)c2)CC1` [Example 63.0], the EC50 is 20 nM. With `COCC1(n2c(NS(=O)(=O)[C@@H](C)[C@@H](OC(C)C)c3ncc(C)cn3)nnc2-c2cccc(OC)n2)CC1` [Example 64.0] the figure was 0.16 nM; with `COCC1(n2c(NS(=O)(=O)[C@@H](C)[C@@H](OC(C)C)c3ncc(C)cn3)nnc2-c2ccccn2)CC1` [Example 65.0], 24 nM. On to `COCC1(n2c(NS(=O)(=O)[C@@H](C)[C@H](C)c3cnc(C)cn3)nnc2-c2cccnc2)CC1` [Example 66.0], for which the concentration for a half-maximal effect (EC50) was determined as 38 nM. Regarding `COCC1(n2c(NS(=O)(=O)[C@@H](C)[C@H](OC)c3ncc(C)cn3)nnc2-c2ccccn2)CC1` [Example 67.0], the EC50 worked out at 24 nM. Under `COCC1(n2c(NS(=O)(=O)[C@@H](C)[C@H](C)c3ncc(Cl)cn3)nnc2-c2cccnc2)CC1` [Example 68.0] stands 2.8 nM; under `COc1cccc(-c2nnc(NS(=O)(=O)[C@@H](C)[C@H](OC)c3ncc(Cl)cn3)n2C2CC2)n1` [Example 69.0], 0.89 nM.

For the compound `COc1cccc(-c2nnc(NS(=O)(=O)[C@@H](C)[C@@H](OC(C)C)c3ncc(Cl)cn3)n2C2CC2)n1` [Example 70.0], the EC50 amounted to 0.6 nM. Take `COc1cccc(-c2nnc(NS(=O)(=O)[C@@H](C)[C@H](OC)c3ncc(Cl)cn3)n2CC2CCC2)n1` [Example 73.0]: the half-maximal effective concentration (EC50) turned out to be 3 nM. On to `COc1cccc(-c2nnc(NS(=O)(=O)[C@@H](C)[C@H](OC)c3ncc(Cl)cn3)n2CCc2ccc(F)cc2)n1` [Example 74.0], for which the 50% effective concentration (EC50) worked out at 31 nM. As for `COc1cccc(-c2nnc(NS(=O)(=O)[C@@H](C)[C@H](OC)c3ncc(Cl)cn3)n2Cc2ccon2)n1` [Example 76.0], the concentration for a half-maximal effect (EC50) is 3.3 nM.

For `COc1cccc(-c2nnc(NS(=O)(=O)[C@@H](C)[C@H](OC)c3ncc(Cl)cn3)n2CC(OC)OC)n1` [Example 77.0], the EC50 came to 135 nM. Consider `CO[C@H](c1ncc(Cl)cn1)[C@H](C)S(=O)(=O)Nc1nnc(-c2ccccn2)n1C1(C)CC1` [Example 97.0], for which the EC50 turned out to be 11 nM. As to `COCC(COC)n1c(NS(=O)(=O)[C@@H](C)[C@H](C)c2ncc(C)cn2)nnc1-c1cccc(OC)n1` [Example 98.0], the 50% effective concentration (EC50) amounted to 6.2 nM. In the case of `COCC(COC)n1c(NS(=O)(=O)[C@@H](C)[C@H](C)c2ncc(OC)cn2)nnc1-c1cccc(OC)n1` [Example 99.0], the half-maximal effective concentration (EC50) was 4.2 nM.

`COCC(COC)n1c(NS(=O)(=O)[C@@H](C)[C@H](OC)c2ncc(C)cn2)nnc1-c1cccc(OC)n1` [Example 100.0]: the EC50 worked out at 6.4 nM. Take `COCC(COC)n1c(NS(=O)(=O)[C@@H](C)[C@H](OC)c2cnc(OC)cn2)nnc1-c1cccc(OC)n1` [Example 101.0]: the concentration giving a half-maximal response (EC50) was found to be 8.9 nM. In the case of `COCC(COC)n1c(NS(=O)(=O)[C@@H](C)[C@H](C)c2cnc(C)cn2)nnc1-c1cccc(OC)n1` [Example 102.0], the EC50 amounted to 20 nM. With `COCC(COC)n1c(NS(=O)(=O)[C@@H](C)[C@H](OC)c2cnc(C)cn2)nnc1-c1cccc(OC)n1` [Example 103.0], the EC50 came out at 15 nM.

For the compound `COCC(COC)n1c(NS(=O)(=O)[C@@H](C)[C@@H](OC(C)C)c2ncc(C)cn2)nnc1-c1cccc(OC)n1` [Example 104.0], the 50% effective concentration (EC50) came to 0.39 nM. For the compound `COCC(COC)n1c(NS(=O)(=O)[C@@H](C)[C@@H](OC(C)C)c2cnc(C)cn2)nnc1-c1cccc(OC)n1` [Example 105.0], the EC50 was determined as 2.8 nM.

As for `COc1cccc(-c2nnc(NS(=O)(=O)[C@@H](C)[C@H](OC)c3ncc(Cl)cn3)n2C2(CF)CC2)n1` [Example 106.0], the EC50 amounted to 0.38 nM.
